Assay results: PubChem BioAssay AID248 (DTP/NCI, 2004)
Where “and” joins values, the source holds several entries; their conditions need not be identical. Identical values can stand only once. Toxic doses and inconclusive results are not listed. Rule as the data show it: active = T/C of 150% or more; inactive = T/C below 125%.

Tested on: L1210 leukemia ip in BDF1 mice, survival T/C
Test: NCI In Vivo Anticancer Drug Screen. Data for tumor model L1210 Leukemia (intraperitoneal) in B6D2F1 (BDF1) mice
Conditions: endpoint: mean survival time, higher = longer survival
Method in brief: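 Value reflects the ratio of survival in compound-treated mice to survival in vehicle-treated controls, with both groups carrying the same transplanted tumor.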

[1] = dose: 100.0 mg/kg/injection, schedule: Q01DX009 (ip), vehicle: saline
[2] = dose: 100.0 mg/kg/injection, schedule: Q04DX003 (ip), vehicle: Klucel (hydroxypropylcellulose) (HPC)
[3] = dose: 200.0 mg/kg/injection, schedule: Q04DX003 (ip), vehicle: Klucel (hydroxypropylcellulose) (HPC)
[4] = dose: 400.0 mg/kg/injection, schedule: Q04DX003 (ip), vehicle: Klucel (hydroxypropylcellulose) (HPC)
[5] = dose: 2.0 mg/kg/injection, schedule: Q01DX001 (ip), vehicle: saline
[6] = dose: 100.0 mg/kg/injection, schedule: Q01DX009 (ip), vehicle: saline with Tween-80
[7] = dose: 75.0 mg/kg/injection, schedule: Q01DX001 (ip), vehicle: saline
[8] = dose: 150.0 mg/kg/injection, schedule: Q01DX001 (ip), vehicle: saline
[9] = dose: 100.0 mg/kg/injection, schedule: Q01DX001 (ip), vehicle: saline
[10] = dose: 200.0 mg/kg/injection, schedule: Q01DX001 (ip), vehicle: saline
[11] = dose: 400.0 mg/kg/injection, schedule: Q01DX001 (ip), vehicle: saline
[12] = dose: 100.0 mg/kg/injection, schedule: Q01DX009 (ip), vehicle: Klucel (hydroxypropylcellulose) (HPC)
[13] = dose: 200.0 mg/kg/injection, schedule: Q01DX009 (ip), vehicle: Klucel (hydroxypropylcellulose) (HPC)
[14] = dose: 400.0 mg/kg/injection, schedule: Q01DX009 (ip), vehicle: Klucel (hydroxypropylcellulose) (HPC)
[15] = dose: 100.0 mg/kg/injection, schedule: Q01DX001 (ip), vehicle: carboxymethylcellulose (CMC)
[16] = dose: 200.0 mg/kg/injection, schedule: Q01DX001 (ip), vehicle: carboxymethylcellulose (CMC)
[17] = dose: 400.0 mg/kg/injection, schedule: Q01DX001 (ip), vehicle: carboxymethylcellulose (CMC)

Measured: T/C

CCC(=O)OC1(c2ccccc2)CCN(CCC(O)c2ccccc2)CC1C (centres undefined)
inactive: dose: 20.0 mg/kg/injection, schedule: Q04DX003 (ip), vehicle: Klucel (hydroxypropylcellulose) (HPC) 105 % of control | dose: 40.0 mg/kg/injection, schedule: Q04DX003 (ip), vehicle: Klucel (hydroxypropylcellulose) (HPC) 105 % of control

COc1cc(N)c2ncsc2c1
inactive: [1] 97 % of control | dose: 100.0 mg/kg/injection, schedule: Q04DX002 (ip), vehicle: Klucel (hydroxypropylcellulose) (HPC) 94 % of control | dose: 200.0 mg/kg/injection, schedule: Q01DX009 (ip), vehicle: saline 102 % of control | dose: 200.0 mg/kg/injection, schedule: Q04DX002 (ip), vehicle: Klucel (hydroxypropylcellulose) (HPC) 88 % of control | dose: 400.0 mg/kg/injection, schedule: Q04DX002 (ip), vehicle: Klucel (hydroxypropylcellulose) (HPC) 91 % of control

Cc1ccc(NCN2C(=O)c3ccccc3C2=O)c(C)c1
inactive: [2] 105 % of control | [3] 106 % of control | [4] 94 % of control

CCOP(=O)(CI)Oc1ccc([N+](=O)[O-])cc1 (centres undefined)
inactive: dose: 0.5 mg/kg/injection, schedule: Q01DX001 (ip), vehicle: saline 100 % of control | dose: 1.0 mg/kg/injection, schedule: Q01DX001 (ip), vehicle: saline 102 % of control | [5] 100 % of control

O=C1C(c2ccc(Br)cc2)=C(c2ccccc2)c2c(-c3ccccc3)cc(Br)c(-c3ccccc3)c21
inactive: dose: 100.0 mg/kg/injection, schedule: Q01DX001 (ip), vehicle: saline with Tween-80 90 % of control | dose: 200.0 mg/kg/injection, schedule: Q01DX001 (ip), vehicle: saline with Tween-80 90 % of control | dose: 400.0 mg/kg/injection, schedule: Q01DX001 (ip), vehicle: saline with Tween-80 87 % of control

CC1(C)c2ccccc2C(=O)C1(Br)Cc1ccccc1 (centres undefined)
inactive: [6] 90 % of control

COc1ccc(C=NC(C)(C)CO)c(OC)c1
inactive: [7] 96 % of control | [8] 101 % of control

O=C1c2cccnc2C(=O)N1Cc1ccccc1
inactive: dose: 100.0 mg/kg/injection, schedule: Q01DX009 (ip), vehicle: saline sonified 103 % of control | [2] 107 % of control | dose: 200.0 mg/kg/injection, schedule: Q01DX009 (ip), vehicle: saline sonified 96 % of control | [3] 103 % of control | dose: 400.0 mg/kg/injection, schedule: Q01DX009 (ip), vehicle: saline sonified 102 % of control | [4] 102 % of control

CSCSCC(N)C(=O)O (centres undefined)
inactive: [9] 94 % of control | dose: 150.0 mg/kg/injection, schedule: Q04DX003 (ip), vehicle: saline 100 % of control | [10] 100 % of control | dose: 300.0 mg/kg/injection, schedule: Q04DX003 (ip), vehicle: saline 94 % of control | [11] 100 % of control | dose: 600.0 mg/kg/injection, schedule: Q04DX003 (ip), vehicle: saline 97 % of control

OCC(F)(F)C(F)(F)C(F)(F)C(F)F
inactive: dose: 50.0 mg/kg/injection, schedule: Q01DX001 (ip), vehicle: saline 94 % of control | [9] 102 % of control | [12] 101 % of control | [2] 102 % of control | [10] 96 % of control | [13] 101 % of control | [3] 102 % of control | [11] 94 % of control | [14] 103 % of control | [4] 105 % of control

Cc1cc(Br)c2c(C)ccc(C)c2n1
inactive: [5] 98 % of control | dose: 5.0 mg/kg/injection, schedule: Q01DX001 (ip), vehicle: saline 102 % of control | dose: 10.0 mg/kg/injection, schedule: Q01DX001 (ip), vehicle: saline 96 % of control

CSc1ccc(N=Cc2ccccc2O)cc1
inactive: [15] 93 % of control | [16] 93 % of control | [17] 98 % of control

O=C1OC(/C=C/c2ccccc2)=NC/1=C\c1cc(Br)ccc1O
inactive: dose: 100.0 mg/kg/injection, schedule: Q04DX002 (ip), vehicle: saline with Tween-80 104 % of control | dose: 200.0 mg/kg/injection, schedule: Q04DX002 (ip), vehicle: saline with Tween-80 95 % of control and 97 % of control | dose: 400.0 mg/kg/injection, schedule: Q04DX002 (ip), vehicle: saline with Tween-80 104 % of control and 114 % of control

Cc1nc2nc[nH]c(=O)c2nc1C
inactive: dose: 16.0 mg/kg/injection, schedule: Q01DX Z (ip), vehicle: methylcellulose (MC) 92 % of control | dose: 31.0 mg/kg/injection, schedule: Q01DX Z (ip), vehicle: methylcellulose (MC) 89 % of control | dose: 62.0 mg/kg/injection, schedule: Q01DX Z (ip), vehicle: methylcellulose (MC) 103 % of control | dose: 125.0 mg/kg/injection, schedule: Q01DX Z (ip), vehicle: methylcellulose (MC) 93 % of control and 97 % of control | dose: 250.0 mg/kg/injection, schedule: Q01DX Z (ip), vehicle: methylcellulose (MC) 107 % of control

C=CCOc1ccccc1OCC=C
inactive: [15] 107 % of control | [16] 102 % of control | [17] 100 % of control

COC1OC(COC(C)=O)C(OC(C)=O)C(NC(=O)NCCCl)C1OC(C)=O (centres undefined)
inactive: dose: 100.0 mg/kg/injection, schedule: Q01DX001 (ip), vehicle: Klucel (hydroxypropylcellulose) (HPC) 105 % of control | dose: 200.0 mg/kg/injection, schedule: Q01DX001 (ip), vehicle: Klucel (hydroxypropylcellulose) (HPC) 102 % of control | dose: 400.0 mg/kg/injection, schedule: Q01DX001 (ip), vehicle: Klucel (hydroxypropylcellulose) (HPC) 102 % of control

[O-][n+]1ccccc1C(c1ccccc1)c1ccccc1
inactive: dose: 50.0 mg/kg/injection, schedule: Q01DX009 (ip), vehicle: saline with Tween-80 90 % of control | [6] 90 % of control | dose: 200.0 mg/kg/injection, schedule: Q01DX009 (ip), vehicle: saline with Tween-80 90 % of control

N[C@H](Cc1c[nH]c2ccccc12)C(=O)O
inactive: dose: 100.0 mg/kg/injection, schedule: Q01DX009 (ip), vehicle: acetone 95 % of control | dose: 200.0 mg/kg/injection, schedule: Q01DX009 (ip), vehicle: acetone 104 % of control | dose: 400.0 mg/kg/injection, schedule: Q01DX009 (ip), vehicle: acetone 102 % of control | dose: 800.0 mg/kg/injection, schedule: Q01DX009 (ip), vehicle: acetone 95 % of control

CN1CCC=C(CN(c2ccccc2)c2ccccc2)C1
inactive: dose: 25.0 mg/kg/injection, schedule: Q01DX009 (ip), vehicle: saline 93 % of control | dose: 25.0 mg/kg/injection, schedule: Q04DX003 (ip), vehicle: saline 92 % of control | dose: 50.0 mg/kg/injection, schedule: Q01DX009 (ip), vehicle: saline 100 % of control | dose: 50.0 mg/kg/injection, schedule: Q04DX003 (ip), vehicle: saline 96 % of control | [1] 91 % of control | dose: 100.0 mg/kg/injection, schedule: Q04DX003 (ip), vehicle: saline 95 % of control

CC1C2CCC1(C)C(C=O)C2 (centres undefined)
inactive: [7] 93 % of control | [8] 88 % of control | dose: 300.0 mg/kg/injection, schedule: Q01DX001 (ip), vehicle: saline 88 % of control

Cc1ccc(N2C(=O)C3C(C2=O)C2(Cl)C(Cl)=C(Cl)C3(Cl)C2(Cl)Cl)cc1Cl (centres undefined)
inactive: [12] 94 % of control | [13] 87 % of control | [14] 92 % of control

O=C1NC(=O)C(Cc2ccccc2)(Cc2ccccc2)C(=O)N1Cc1ccccc1
inactive: [15] 90 % of control | [16] 90 % of control | [17] 98 % of control

CCCCCCCC(=O)O[C@H]1[C@H]2[C@@H](CC1(C)C)C(=O)[C@]13O[C@H]1C(=O)[C@]1(CO1)[C@]23C
inactive: dose: 5.0 mg/kg/injection, schedule: Q01DX009 (ip), vehicle: saline with Tween-80 108 % of control | dose: 10.0 mg/kg/injection, schedule: Q01DX009 (ip), vehicle: saline with Tween-80 119 % of control | dose: 10.0 mg/kg/injection, schedule: Q04DX003 (ip), vehicle: saline with Tween-80 97 % of control | dose: 20.0 mg/kg/injection, schedule: Q01DX009 (ip), vehicle: saline with Tween-80 86 % of control | dose: 20.0 mg/kg/injection, schedule: Q04DX003 (ip), vehicle: saline with Tween-80 99 % of control

NC(=O)CCCCCCCCC(N)=O
inactive: [9] 98 % of control | [10] 98 % of control | [11] 92 % of control

CC(C)(SCc1ccc([N+](=O)[O-])cc1)C(N)C(=O)O (centres undefined)
inactive: [2] 101 % of control | [3] 100 % of control | [4] 91 % of control
